From patent US4514410A, “Substituted 8-phenylisoxazolo[4,3-e][1,4]diazepin-5-ones” (Hoechst-Roussel Pharmaceuticals Inc., priority 1984, dated 1985)

How the values were obtained:
[1] = Average conflict response ratio (anxiolytic); assay type: in vivo; conditions: drug:control
Procedure: The compounds of the invention are also useful as anxiolytic agents due to their ability to reduce anxiety in mammals. Anxiolytic activity is measured as the average conflict response ratio (drug:control) at 40 mg/kg of body weight.

[2] = test system: extensor tonus in electroshocked mice; assay: Inhibition of extensor tonus induced by electroshock in mice (anticonvulsant); assay type: in vivo; conditions: Mus musculus, effective dose for 50% inhibition of extensor tonus
Excerpt: The anti-convulsant activity of some of the compounds of this invention expressed in terms of the effective dose for 50% inhibition of extensor tonus in mg/kg of body weight in electroshocked mice is given in Table I.

CC1=C2C(=C(c3ccccc3Cl)N=CC(=O)N2C)NO1 [3,4-Dimethyl-8-(2-chlorophenyl)isoxazolo[4,3-e][1,4]diazepin-5-one]
Average Conflict Response Ratio ([1]; at 40 mg/kg of body weight): 18.2
ED50 [2]: 35.6 mg/kg

CC1=C2C(=C(c3ccccc3F)N=CC(=O)N2C)NO1 [3,4-Dimethyl-8-(2-fluorophenyl)isoxazolo[4,3-e][1,4]diazepin-5-one]
Average Conflict Response Ratio ([1]; at 40 mg/kg of body weight): 11.2
ED50 [2]: 79.8 mg/kg

CC1=C2C(=C(c3ccccc3)N=CC(=O)N2C)NO1 [3,4-Dimethyl-8-phenylisoxazolo[4,3-e][1,4]diazepin-5-one]
Average Conflict Response Ratio ([1]; at 40 mg/kg of body weight): 31.7
ED50 [2]: 25.1 mg/kg

CC(=O)Nc1nnc(S(N)(=O)=O)s1 [acetazolamide, reference compound]
ED50 [2]: 29.1 mg/kg

CNC1=Nc2ccc(Cl)cc2C(c2ccccc2)=[N+]([O-])C1 [chlordiazepoxide, reference compound]
Average Conflict Response Ratio ([1]; @ 20 mg/kg (standard)): 32.6
